Measured values as given in ChEMBL document CHEMBL4420060, “Combinatorial therapies for the treatment of neoplasias using the opioid growth factor receptor” (2013).
The source made the active and inactive calls. The rule behind the calls is not given here.

Legend:
MIA PaCa-2 [1] = assay: Antitumor activity against human MIAPaCa2 cells xenografted in athymic BALB/c nu/nu nude mouse assessed as latency time for visible tumor at 10 mg/kg dosed daily measured on day 10 after tumor cell inoculation (reference value: 10.1 +/- 1.8 days); type: functional
UMSCC1 [2] = assay: Growth inhibition of human UM-SCC-1 cells assessed as decrease in cell number at 0.01 uM in presence of 1 uM opioid antagonist naloxone incubated for 24 to 96 hrs by MTS assay relative to control; type: functional, cell-based
MIA PaCa-2 [3] = assay: Antitumor activity against human MIAPaCa2 cells xenografted in athymic BALB/c nu/nu nude mouse assessed as latency time for visible tumor at 120 mg/kg dosed every 3 days and co-treated with 10 mg/kg OGF measured on day 10 after tumor cell inoculation (reference value: 10.1 +/- 1.8 days); type: functional
MIA PaCa-2 [4] = assay: Antitumor activity against human MIAPaCa2 cells xenografted in athymic BALB/c nu/nu nude mouse assessed tumor weight at 10 mg/kg dosed daily measured on day 45 after tumor cell inoculation (reference value: 5.5 +/- 1 g); type: functional
MIA PaCa-2 [5] = assay: Antitumor activity against human MIAPaCa2 cells xenografted in athymic BALB/c nu/nu nude mouse assessed as effect on tumor incidence at 120 mg/kg dosed every 3 days and co-treated with 10 mg/kg OGF measured on day 16 after tumor cell inoculation relative to control; type: functional, organism-based
MIA PaCa-2 [6] = assay: Antitumor activity against human MIAPaCa2 cells xenografted in athymic BALB/c nu/nu nude mouse assessed tumor weight at 120 mg/kg dosed every 3 days and co-treated with 10 mg/kg OGF measured on day 45 after tumor cell inoculation (reference value: 5.5 +/- 1 g); type: functional
[7] = Toxicity in athymic BALB/c nu/nu nude mouse xenografted with human MIAPaCa2 cells assessed as body weight at 10 mg/kg dosed daily measured on day 45 after tumor cell inoculation (reference value: 33.3 +/- 1 g); type: organism-based; conditions: in vivo
MIA PaCa-2 [8] = assay: Antitumor activity against human MIAPaCa2 cells xenografted in athymic BALB/c nu/nu nude mouse assessed as tumor incidence at 120 mg/kg dosed every 3 days and co-treated with 10 mg/kg OGF measured on day 10 after tumor cell inoculation (reference value: 80%); type: functional
MIA PaCa-2 [9] = assay: Antitumor activity against human MIAPaCa2 cells xenografted in athymic BALB/c nu/nu nude mouse assessed as tumor incidence at 120 mg/kg dosed every 3 days and co-treated with 10 mg/kg OGF and measured on day 16 after tumor cell inoculation; type: functional
UMSCC1 [10] = assay: Induction of cell cycle arrest in human UM-SCC-1 cells assessed as reduction in accumulation at G2/M phase in presence of OGF after 6 hrs by flow cytometry; type: functional, cell-based
MIA PaCa-2 [11] = assay: Antitumor activity against human MIAPaCa2 cells xenografted in athymic BALB/c nu/nu nude mouse assessed tumor volume at 10 mg/kg dosed daily measured on day 45 after tumor cell inoculation (reference value: 8935 +/- 1694 mm3); type: functional
MIA PaCa-2 [12] = assay: Growth inhibition of human MIAPaCa2 cells assessed as decrease in cell number at 0.01 uM incubated for 48 hrs in presence of 1 uM OGF by MTS assay relative to control; type: functional
MIA PaCa-2 [13] = assay: Antitumor activity against human MIAPaCa2 cells xenografted in athymic BALB/c nu/nu nude mouse assessed as time delay in visible tumor development at 120 mg/kg dosed every 3 days and co-treated with 10 mg/kg OGF relative to control; type: functional
UMSCC1 [14] = assay: Antitumor activity against human UM-SCC-1 cells xenografted in nu/nu mouse assessed as reduction in tumor measured on 4 to 36 day of measurable tumors at 120 mg/kg dosed every 3 days relative to control; type: functional, organism-based
MIA PaCa-2 [15] = assay: Antitumor activity against human MIAPaCa2 cells xenografted in athymic BALB/c nu/nu nude mouse assessed tumor volume at 120 mg/kg dosed every 3 days and co-treated with 10 mg/kg OGF measured on day 45 after tumor cell inoculation (reference value: 8935 +/- 1694 mm3); type: functional
MIA PaCa-2 [16] = assay: Antitumor activity against human MIAPaCa2 cells xenografted in athymic BALB/c nu/nu nude mouse assessed as effect on tumor incidence at 10 mg/kg dosed daily measured on day 16 after tumor cell inoculation relative to control; type: functional, organism-based
MIA PaCa-2 [17] = assay: Growth inhibition of human MIAPaCa2 cells assessed as decrease in cell number at 0.01 uM incubated for 48 hrs in presence of 1 uM OGF by trypan blue staining assay relative to control; type: functional
UMSCC1 [18] = assay: Induction of cell cycle arrest in human UM-SCC-1 cells assessed as accumulation at G1/S phase after 6 hrs by flow cytometry; type: functional, cell-based
UMSCC1 [19] = assay: Antitumor activity against human UM-SCC-1 cells xenografted in nu/nu mouse assessed as reduction in tumor measured on 4 to 36 day of measurable tumors at 120 mg/kg dosed every 3 days and co-treated with 10 mg/kg OGF relative to control; type: functional, organism-based
Mus musculus = assay: Effect on plasma OGF level in athymic BALB/c nu/nu nude mouse xenografted with MIAPaCa2 cells at 120 mg/kg dosed every 3 days by radioimmunoassay; type: functional, organism-based
MIA PaCa-2 [20] = assay: Antitumor activity against human MIAPaCa2 cells xenografted in athymic BALB/c nu/nu nude mouse assessed spleen weight at 10 mg/kg dosed daily measured on day 45 after tumor cell inoculation (reference value: 761 +/- 61 mg); type: functional
MIA PaCa-2 [21] = assay: Antitumor activity against human MIAPaCa2 cells xenografted in athymic BALB/c nu/nu nude mouse assessed as tumor incidence at 10 mg/kg dosed daily measured on day 10 after tumor cell inoculation (reference value: 80%); type: functional
UMSCC1 [22] = assay: Antitumor activity against human UM-SCC-1 cells xenografted in nu/nu mouse assessed as latency time for measurable (62.5 mm3) tumors at 120 mg/kg dosed every 3 days (Rvb <=14 days); type: functional
MIA PaCa-2 [23] = assay: Growth inhibition of human MIAPaCa2 cells assessed as decrease in cell number at 0.01 uM incubated for 96 hrs in presence of 1 uM opioid antagonist naloxone by MTS assay relative to control; type: functional, cell-based
MIA PaCa-2 [24] = assay: Antitumor activity against human MIAPaCa2 cells xenografted in athymic BALB/c nu/nu nude mouse assessed as effect on tumor incidence at 120 mg/kg dosed every 3 days measured on day 16 after tumor cell inoculation relative to control; type: functional, organism-based
MIA PaCa-2 [25] = assay: Growth inhibition of human MIAPaCa2 cells assessed as decrease in cell number at 0.01 uM in presence of 1 uM OGF incubated for 48 hrs followed by compound wash out by 50% replacement of media and measured after 48 hrs by MTS assay relative to control; type: functional, cell-based
MIA PaCa-2 [26] = assay: Antitumor activity against human MIAPaCa2 cells xenografted in athymic BALB/c nu/nu nude mouse assessed as reduction in tumor weight at 120 mg/kg dosed every 3 days and co-treated with 10 mg/kg OGF measured on day 45 after tumor cell inoculation; type: functional; design: scale not given: the % may be the effect or the level left
MIA PaCa-2 [27] = assay: Antitumor activity against human MIAPaCa2 cells xenografted in athymic BALB/c nu/nu nude mouse assessed spleen weight at 120 mg/kg dosed every 3 days and co-treated with 10 mg/kg OGF measured on day 45 after tumor cell inoculation (reference value: 761 +/- 61 mg); type: functional

For Nc1ccn([C@@H]2O[C@H](CO)[C@@H](O)C2(F)F)c(=O)n1 [GEMCITABINE], the Time (MIA PaCa-2 [1]) was 10.7 days, the “growth inhibition (GI)” value (UMSCC1 [2]) was “Active” and the Time (MIA PaCa-2 [3]) was 16.2 days. For the same compound, the Activity (MIA PaCa-2 [4]) was 3.5 g, the Activity (MIA PaCa-2 [5]) was “inactive” and the Activity (MIA PaCa-2 [6]) was 0.8 g. For the same compound, the Activity [7] was 31.4 g, the Activity (MIA PaCa-2 [8]) was 0% and the Activity (MIA PaCa-2 [9]) was 0%. For the same compound, the Activity (UMSCC1 [10]) was “Active”, the Activity (MIA PaCa-2 [11]) was 4849 mm3 and the “growth inhibition (GI)” value (MIA PaCa-2 [12]) was 26%. For the same compound, the Time (MIA PaCa-2 [13]) was 6 days, the Activity (UMSCC1 [14]) was “Active” and the Activity (MIA PaCa-2 [15]) was 1477 mm3. The Activity (MIA PaCa-2 [16]) was “inactive”, the “growth inhibition (GI)” value (MIA PaCa-2 [17]) was 26.3% and the Activity (UMSCC1 [18]) was “Active”. For the same compound, the Activity (UMSCC1 [19]) was “Active”, the Activity (Mus musculus) was “inactive” and the Activity (MIA PaCa-2 [20]) was 606 mg. For the same compound, the Activity (MIA PaCa-2 [21]) was 60%, the Time (UMSCC1 [22]) was “<=2 weeks” and the “growth inhibition (GI)” value (MIA PaCa-2 [23]) was “Active”. For the same compound, the Activity (MIA PaCa-2 [24]) was “inactive”, the “growth inhibition (GI)” value (MIA PaCa-2 [25]) was “Active” and the Activity (MIA PaCa-2 [26]) was 85%. It also gave an Activity (MIA PaCa-2 [27]) of 437 mg.
